Results as given in ChEMBL document CHEMBL2448688, “Selection and optimization of hits from a high-throughput phenotypic screen against Trypanosoma cruzi. Exported from HEOS 25-Oct-2013. See also related datasets CHEMBL3137440 and CHEMBL3137386”.
Values after ≈ are worked out from the molar mass of the structure shown. Values joined by “and” are separate entries in the source; they are usually repeats but may differ in a detail not shown here. Equal entries are not always repeated.

Experiments:
[1] = test system: Trypanosoma cruzi; assay: (§1) DNDI: Chagas in Vitro; format: functional, organism-based, Tulahuen C4 (LacZ)
[2] = test system: Trypanosoma cruzi; assay: as §1; format: functional, Tulahuen C4 (LacZ)
[3] = test system: Trypanosoma cruzi; assay: DNDI: Chagas in vivo at 20 mg/kg, 20 days 2x; format: functional, Tulahuen Swiss po
[4] = DNDI: Cytotoxicity in vitro, against rat skeletal myoblast (L-6) cells; conditions: L-6 cells (skeletal myoblasts), IC50
[5] = test system: Trypanosoma brucei rhodesiense; assay: DNDI: HAT in Vitro; format: functional, organism-based, ATCC 30027; conditions: Trypanosoma brucei, ATCC 30027
[6] = DNDI: Lipophilicity (gLogD) at pH 3; conditions: buffer, pH 3, logD
[7] = DNDI: Lipophilicity (gLogD) at pH 7.4; conditions: buffer, pH 7.4, logD
[8] = DNDI: Metabolism; format: ADME, Microsome; conditions: rat, microsomes
[9] = DNDI: Permeability in CACO-2 cells at pH 7.4 (A to B); format: ADME, cell-based; conditions: human, Caco-2, pH 7.4
[10] = DNDI: Protein binding in mouse plasma
[11] = DNDI: Protein binding in rat plasma; format: ADME, cell-free; conditions: read-out: % bound (converted)
[12] = DNDI: Solubility in 0.01M HCl at pH 2 determined by nephelometry; conditions: 0.01M HCl, pH 2, Kinetic
[13] = target: T1, Cytochrome P450 1A2 (Homo sapiens, UniProt P05177)
T1 sequence (P05177 whole entry): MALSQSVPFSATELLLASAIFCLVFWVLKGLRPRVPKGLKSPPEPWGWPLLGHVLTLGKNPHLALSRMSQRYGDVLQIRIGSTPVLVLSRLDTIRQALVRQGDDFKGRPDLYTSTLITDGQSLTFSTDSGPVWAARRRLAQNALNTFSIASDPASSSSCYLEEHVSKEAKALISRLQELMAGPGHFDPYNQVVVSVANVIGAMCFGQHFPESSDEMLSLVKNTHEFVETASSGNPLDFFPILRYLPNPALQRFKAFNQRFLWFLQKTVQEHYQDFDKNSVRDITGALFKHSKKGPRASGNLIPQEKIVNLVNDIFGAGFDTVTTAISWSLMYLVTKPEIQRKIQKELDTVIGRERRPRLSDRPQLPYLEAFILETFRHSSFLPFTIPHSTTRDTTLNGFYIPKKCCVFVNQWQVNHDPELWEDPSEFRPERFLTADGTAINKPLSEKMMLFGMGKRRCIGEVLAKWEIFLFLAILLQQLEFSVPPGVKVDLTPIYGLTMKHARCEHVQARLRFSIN

[14] = target: Cytochrome P450 2C19 (Homo sapiens, UniProt P33261)
[15] = target: Cytochrome P450 2C9 (Homo sapiens, UniProt P11712)
[16] = target: Cytochrome P450 2D6 (Homo sapiens, UniProt P10635)
[17] = in vitro; conditions: human, microsomes
[18] = in vitro; conditions: human, microsomes, t (1 / 2)
[19] = in vitro; conditions: mouse, microsomes
[20] = in vitro; conditions: mouse, microsomes; remark: listed apart in the source
[21] = in vitro; conditions: rat, hepatocytes
[22] = in vitro; conditions: rat, microsomes
[23] = in vitro; conditions: rat, microsomes; remark: listed apart in the source
[24] = target: Cytochrome P450 3A4 (Homo sapiens, UniProt P08684); assay: DNDI: Human CYP3A4 inhibition determined using 6b-hydroxylation of testosterone
[25] = test system: Leishmania donovani; assay: DNDI: Leish macro in vitro at 10 uM; format: functional; conditions: MHOM/ET/67/L82
[26] = DNDI: Solubility in phosphate buffer at pH 6.5 determined by nephelometry; conditions: phosphate buffer, pH 6.5, Kinetic
[27] = in vitro; conditions: human, microsomes, EH
[28] = human, microsomes
[29] = human, microsomes; remark: listed apart in the source
[30] = human, microsomes; remark: listed apart in the source
[31] = test system: Trypanosoma cruzi; assay: DNDI: Chagas in vivo at 20 mg/kg, 20 days 1x; format: functional, Tulahuen Swiss po
[32] = test system: Trypanosoma cruzi; assay: DNDI: Chagas in vivo at 50 mg/kg, 20 days 1x; format: functional, Tulahuen Swiss po
[33] = in vitro; conditions: mouse, microsomes; remark: listed apart in the source
[34] = in vitro; conditions: rat, hepatocytes; remark: listed apart in the source
[35] = in vitro; conditions: rat, microsomes; remark: listed apart in the source
[36] = (§2) DNDI: Stability, 4 hour; format: ADME, tissue-based; conditions: mouse, blood
[37] = as §2; format: ADME, cell-free; conditions: mouse, plasma
[38] = target: T2, CYP3A4 (Homo sapiens, UniProt P08684); assay: DNDI: Human CYP3A4 inhibition at 1 uM determined using 6b-hydroxylation of testosterone; conditions: probe testosterone (6b-hydroxylation)
[39] = target: T2, CYP3A4; assay: DNDI: Human CYP3A4 inhibition at 10 uM determined using 6b-hydroxylation of testosterone; conditions: probe testosterone (6b-hydroxylation)
[40] = Trypanosoma cruzi, Tulahuen C4 (LacZ)

Chain of Cytochrome P450 3A4 (P08684 whole entry): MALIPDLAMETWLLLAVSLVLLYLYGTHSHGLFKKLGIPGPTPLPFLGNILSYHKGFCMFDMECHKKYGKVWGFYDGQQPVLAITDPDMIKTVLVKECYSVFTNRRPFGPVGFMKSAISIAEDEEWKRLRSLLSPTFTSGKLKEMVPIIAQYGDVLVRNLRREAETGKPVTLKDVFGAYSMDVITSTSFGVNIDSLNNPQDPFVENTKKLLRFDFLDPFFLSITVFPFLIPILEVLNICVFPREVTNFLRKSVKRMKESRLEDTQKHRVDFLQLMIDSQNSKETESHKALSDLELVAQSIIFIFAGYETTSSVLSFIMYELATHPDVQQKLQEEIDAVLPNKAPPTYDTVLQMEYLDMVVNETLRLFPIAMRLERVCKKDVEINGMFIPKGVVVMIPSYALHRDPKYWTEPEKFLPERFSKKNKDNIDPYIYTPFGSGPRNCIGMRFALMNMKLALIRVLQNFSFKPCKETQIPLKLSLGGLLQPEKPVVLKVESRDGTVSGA
T2 sequence (P08684 whole entry): as above
Chain of Cytochrome P450 2C9 (P11712 whole entry): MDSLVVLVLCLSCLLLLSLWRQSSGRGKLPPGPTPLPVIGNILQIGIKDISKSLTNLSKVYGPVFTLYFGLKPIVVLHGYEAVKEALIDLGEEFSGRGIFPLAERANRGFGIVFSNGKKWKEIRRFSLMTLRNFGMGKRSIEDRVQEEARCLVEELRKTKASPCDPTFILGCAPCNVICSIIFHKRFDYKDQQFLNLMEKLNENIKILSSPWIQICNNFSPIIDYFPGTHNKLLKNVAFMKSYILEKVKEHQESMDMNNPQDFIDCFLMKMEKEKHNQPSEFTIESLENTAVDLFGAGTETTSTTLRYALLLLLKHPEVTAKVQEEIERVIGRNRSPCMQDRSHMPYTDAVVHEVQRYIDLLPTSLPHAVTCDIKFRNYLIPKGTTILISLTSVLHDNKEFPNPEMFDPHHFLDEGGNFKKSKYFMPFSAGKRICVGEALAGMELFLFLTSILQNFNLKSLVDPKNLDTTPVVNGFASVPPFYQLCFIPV
Chain of Cytochrome P450 2C19 (P33261 whole entry): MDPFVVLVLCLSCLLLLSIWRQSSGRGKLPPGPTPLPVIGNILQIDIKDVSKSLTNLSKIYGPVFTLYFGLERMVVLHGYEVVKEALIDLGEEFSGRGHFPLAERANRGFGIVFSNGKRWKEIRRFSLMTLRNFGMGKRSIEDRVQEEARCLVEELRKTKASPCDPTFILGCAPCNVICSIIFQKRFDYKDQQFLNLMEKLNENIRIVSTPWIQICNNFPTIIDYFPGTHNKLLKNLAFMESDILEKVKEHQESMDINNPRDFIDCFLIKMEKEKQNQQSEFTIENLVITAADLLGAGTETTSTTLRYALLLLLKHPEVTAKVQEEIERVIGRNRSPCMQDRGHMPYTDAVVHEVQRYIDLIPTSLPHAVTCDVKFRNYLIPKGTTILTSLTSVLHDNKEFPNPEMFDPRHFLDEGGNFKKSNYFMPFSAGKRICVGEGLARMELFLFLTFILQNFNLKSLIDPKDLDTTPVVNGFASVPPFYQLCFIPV
Chain of Cytochrome P450 2D6 (P10635 whole entry): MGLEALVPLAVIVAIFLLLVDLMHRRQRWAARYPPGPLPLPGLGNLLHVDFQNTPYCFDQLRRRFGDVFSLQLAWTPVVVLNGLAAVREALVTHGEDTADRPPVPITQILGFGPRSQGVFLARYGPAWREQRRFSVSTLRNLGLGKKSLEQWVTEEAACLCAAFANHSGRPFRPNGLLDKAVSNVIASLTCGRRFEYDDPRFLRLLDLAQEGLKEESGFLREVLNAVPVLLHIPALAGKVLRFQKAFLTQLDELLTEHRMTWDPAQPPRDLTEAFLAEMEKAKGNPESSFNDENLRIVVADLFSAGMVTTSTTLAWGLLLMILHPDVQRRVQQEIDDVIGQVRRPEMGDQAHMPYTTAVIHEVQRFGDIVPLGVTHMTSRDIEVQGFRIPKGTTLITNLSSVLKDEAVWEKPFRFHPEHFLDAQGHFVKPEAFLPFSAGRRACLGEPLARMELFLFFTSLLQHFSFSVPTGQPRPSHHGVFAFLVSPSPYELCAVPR

| Compound | IC50 [1] | IC50 [1, 40] [nM] | IC90 [2] | PCR cure rate [3] [%] | Parasitemia clearance after immunosuppression [3] [%] | Parasitemia clearance after treatment [3] [%] | IC50 [4] [nM] | IC50 [5] [nM] | chromatographic logD [6] | chromatographic logD [7] | fraction unbound [10] | fraction unbound [11] | solubility kinetic [12] [µg/mL] | microsomal CLint [17] [µL/min/mg] | half-life [18] [h] | microsomal CLint [19] [µL/min/mg] | half-life [20] [h] | IC90 [2, 40] [nM] | IC50 [24] [nM] | hepatic extraction ratio [27] | also measured |
| --- | --- | --- | --- | --- | --- | --- | --- | --- | --- | --- | --- | --- | --- | --- | --- | --- | --- | --- | --- | --- | --- |
| N#Cc1ccc(-n2ccnc2)c(NC(=O)c2cnc(-c3ccccc3)s2)c1 | 11.5 nM and 6.8 nM and 7 nM | 6 | 20.5 nM and 47 nM and > 100 nM | 0 | 0 | 100 | > 100000 | > 10000 | 2.1 | 2.8 | 0.064 | 0.043 | > 100 | 11 | 2.53 | 31 | 0.933 |  |  |  | CLblood [8]: 25 mL/min/kg; Papp A→B [9]: 82 ×10⁻⁶ cm/s; IC50 [13]: > 20000 nM; IC50 [14]: 15900 nM; IC50 [15]: > 20000 nM; IC50 [16]: 2700 nM; CLhep predicted [21]: 17.2 mL/min/kg; half-life [22]: 1.22 h; microsomal CLint [23]: 24 µL/min/mg |
| N#Cc1ccc(-n2ccnc2)c(NC(=O)c2cnc(-c3ccccc3)nc2)c1 | 84 nM | > 100 |  |  |  |  | > 100000 | > 10000 | 1.9 | 2.7 |  |  | 50 (≈ 136 µM) | 15 | 1.88 |  |  | > 100 | > 20000 | 0.46 | inhibition at 10 µM [25]: 53.5%; solubility kinetic [26]: 3.1 µg/mL (≈ 8.46 µM) |
| CC(=O)N(Cc1cccnc1)c1ccc(-c2nc3ccccc3s2)cc1 |  |  |  |  |  |  |  |  | 2.18 | > 3.94 |  |  | 71 (≈ 198 µM) | 98.3 | 0.293 |  |  |  |  |  | solubility kinetic [26]: 11.9 µg/mL (≈ 33 µM); CLint in vitro [28]: 72 µL/min/mg; EH [29]: 0.74 none; t (1 / 2) [30]: 24 min |
| CO/N=C(\C)c1ccc(-n2ccnc2)c(NC(=O)c2cnn(-c3ccccn3)c2)c1 | 6 nM | 6.7 | 14 nM | 0 | 0 | 80 | > 100000 |  |  |  | 0.022 | 0.008 |  | 16 | 1.8 | 83 | 0.35 | 16 | 1400 | 0.38 | PCR cure rate [31]: 0%; Parasitemia clearance after immunosuppression [31]: 0%; Parasitemia clearance after treatment [31]: 0%; PCR cure rate [32]: 0%; Parasitemia clearance after immunosuppression [32]: 0%; Parasitemia clearance after treatment [32]: 20%; hepatic extraction ratio [33]: 0.78; CLhep predicted [21]: 34.3 mL/min/kg; hepatic extraction ratio [34]: 0.51; half-life [22]: 1.07 h; microsomal CLint [23]: 27 µL/min/mg; hepatic extraction ratio [35]: 0.47 |
| CCOC(=O)c1ccc(-n2ccnc2)c(NC(=O)c2cnc(-c3ccccc3)nc2)c1 |  | 3 |  |  |  |  | > 100000 | > 10000 |  |  |  |  |  | 11 | 2.67 |  |  | 37 | > 20000 | 0.38 | remaining at 4 h [36]: 0.4%; remaining at 4 h [37]: 1.8% |
| CC(=O)N(Cc1c[nH]cn1)c1ccc(-c2nc3ccccc3s2)cc1 |  | 13.5 |  |  |  |  | 63400 |  | 1.6 | 2.1 |  |  | > 100 | 14 | 2.05 | 21 | 1.35 | 27 | > 10000 | 0.35 | inhibition at 1 µM [38]: 0.3%; inhibition at 10 µM [39]: 28.1%; hepatic extraction ratio [33]: 0.32 |
